Data published in patent publication US9783505B2, “Substituted diaminopyrimidyl compounds, compositions thereof, and methods of treatment therewith” (Signal Pharmaceuticals, LLC, priority 2013, dated 2017).

Experiments:
His-PKC-theta = target: T1, His-PKC-theta (Homo sapiens, UniProt Q04759); assay: PKC-theta Assay (384-well time resolved fluorescence, IMAP TR-FRET); assay type: biochemical; conditions: read-out: Act. Level (IC50 in the PKC-theta Assay)
T1 construct: His; purchased Invitrogen
Outline: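 Fam-labeled S6-derived peptide (200 nM) and 10 μM ATP were reacted with 142 pM enzyme for 2 h at room temperature in HEPES pH 7.6 buffer with MgCl2, DTT, Triton X-100, BSA and EDTA. The reaction was stopped with IMAP progressive binding reagent plus Tb donor, incubated overnight, then TR-FRET read.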

PKC delta = target: T2, PKC delta (Homo sapiens, UniProt Q05655); assay: PKC delta Assay (384-well time resolved fluorescence, IMAP TR-FRET); assay type: biochemical; conditions: selectivity for PKC-theta over PKC-delta
T2 construct: purchased Invitrogen
Outline: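 1.5 nM enzyme with 200 nM Fam-labeled S6-derived peptide and 10 μM ATP in 50 mM HEPES pH 7.6, 10 mM MgCl2, 1 mM DTT, 0.01% Triton X-100, 0.01% BSA, 0.1 mM EDTA; 2 hours at room temperature. Stopped with IMAP binding reagent and Tb donor, incubated overnight, read by TR-FRET.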

T1 sequence (Q04759 whole entry): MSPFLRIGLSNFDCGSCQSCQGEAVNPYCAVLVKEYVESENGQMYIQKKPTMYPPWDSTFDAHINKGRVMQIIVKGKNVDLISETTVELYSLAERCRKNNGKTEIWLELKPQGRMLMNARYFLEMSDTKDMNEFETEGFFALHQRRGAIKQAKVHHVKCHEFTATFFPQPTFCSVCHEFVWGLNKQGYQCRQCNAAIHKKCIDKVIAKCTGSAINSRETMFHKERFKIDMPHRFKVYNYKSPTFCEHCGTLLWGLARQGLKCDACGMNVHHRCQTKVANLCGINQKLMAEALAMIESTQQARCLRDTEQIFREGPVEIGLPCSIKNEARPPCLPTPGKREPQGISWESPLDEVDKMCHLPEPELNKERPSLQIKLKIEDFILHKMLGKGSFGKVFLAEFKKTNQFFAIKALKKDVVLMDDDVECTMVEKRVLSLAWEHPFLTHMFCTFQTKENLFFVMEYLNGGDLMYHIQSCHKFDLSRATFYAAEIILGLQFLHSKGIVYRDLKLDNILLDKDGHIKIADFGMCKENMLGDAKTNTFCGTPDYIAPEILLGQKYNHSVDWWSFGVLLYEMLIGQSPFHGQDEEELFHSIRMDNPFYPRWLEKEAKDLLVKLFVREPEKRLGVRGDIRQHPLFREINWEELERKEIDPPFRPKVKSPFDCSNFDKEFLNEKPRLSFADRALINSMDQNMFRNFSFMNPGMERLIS
T2 sequence (Q05655 whole entry): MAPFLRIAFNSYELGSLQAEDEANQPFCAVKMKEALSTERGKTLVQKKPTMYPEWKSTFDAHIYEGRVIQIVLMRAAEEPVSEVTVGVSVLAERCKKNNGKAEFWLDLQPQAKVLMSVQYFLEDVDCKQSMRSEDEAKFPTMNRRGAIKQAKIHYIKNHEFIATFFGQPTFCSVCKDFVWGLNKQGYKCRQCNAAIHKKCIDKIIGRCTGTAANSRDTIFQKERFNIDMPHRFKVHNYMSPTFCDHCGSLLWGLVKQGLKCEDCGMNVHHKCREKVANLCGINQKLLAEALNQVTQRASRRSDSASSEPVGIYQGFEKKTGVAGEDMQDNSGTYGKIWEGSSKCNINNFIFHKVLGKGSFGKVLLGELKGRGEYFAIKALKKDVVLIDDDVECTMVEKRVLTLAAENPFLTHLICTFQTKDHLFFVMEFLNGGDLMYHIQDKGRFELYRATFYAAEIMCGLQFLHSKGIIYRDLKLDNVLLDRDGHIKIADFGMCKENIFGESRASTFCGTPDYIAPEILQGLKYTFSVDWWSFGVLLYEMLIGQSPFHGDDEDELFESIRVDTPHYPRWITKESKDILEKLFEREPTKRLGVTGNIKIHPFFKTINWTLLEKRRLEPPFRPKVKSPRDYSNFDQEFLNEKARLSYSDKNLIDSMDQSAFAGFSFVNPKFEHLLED

Row | SMILES | IC50 (His-PKC-theta) | Sel. Level (ratio of IC50 PKC-delta/IC50 PKC-theta) (PKC delta)
1 | CC1(C)C[C@H](Nc2nc(NCCc3ccc(OCC(F)(F)F)nc3)ncc2C#N)CC[C@@H]1O [Cmpd 253] | 100 to 800 nM | F (selectivity of between 20- and 100-fold (selectivity level F))
2 | CC1(C)C[C@H](Nc2nc(NCCc3cnoc3)ncc2C#N)CC[C@@H]1O [Cmpd 222] | 800 to 2000 nM | G (selectivity between 5- and 20-fold (selectivity level G))
3 | CC1(C)C[C@H](Nc2nc(NCCc3cncnc3)ncc2C#N)CC[C@@H]1O [Cmpd 277] | 2000 to 10000 nM | H (selectivity level of 5-fold or less (selectivity level H))
4 | CC(F)(F)COc1ncncc1CNc1ncc(C#N)c(N[C@@H]2CCC[C@@](C)(O)C2)n1 [Cmpd 286] | 100 to 800 nM | F (selectivity of between 20- and 100-fold (selectivity level F))
5 | CC1(C)C[C@H](Nc2nc(NCCn3ccnc3)ncc2C#N)CC[C@@H]1O [Cmpd 221] | 2000 to 10000 nM | H (selectivity level of 5-fold or less (selectivity level H))
6 | CC1(C)[C@@H](Nc2nc(NCCC3C(=O)Nc4cc(F)ccc43)ncc2C#N)CCC[C@@H]1O (some centres unmarked) [Cmpd 309] | 800 to 2000 nM | G (selectivity between 5- and 20-fold (selectivity level G))
7 | CC(F)(F)COc1ncncc1CNc1ncc(C#N)c(N[C@@H]2CCC[C@H](O)C2(C)C)n1 [Cmpd 299] | < 100 nM | E (selectivity (Sel. Level=ratio of IC50 PKC-delta/IC50 PKC-theta) of >100-fold (selectivity level E))
8 | CC1(C)C[C@H](Nc2nc(NCC[C@@]3(C)C(=O)Nc4ccccc43)ncc2C#N)CC[C@@H]1O [Cmpd 304] | 100 to 800 nM | F (selectivity of between 20- and 100-fold (selectivity level F))
9 | CC(F)(F)COc1ncncc1CNc1ncc(C#N)c(N[C@H]2CC3(C2)C[C@](C)(O)C3)n1 (some centres unmarked) [Cmpd 295] | 100 to 800 nM | F (selectivity of between 20- and 100-fold (selectivity level F))
10 | CN1C(=O)C(CCNc2ncc(C#N)c(N[C@@H]3CC[C@H](O)C(C)(C)C3)n2)c2ccccc21 (some centres unmarked) [Cmpd 300] | 800 to 2000 nM | G (selectivity between 5- and 20-fold (selectivity level G))
11 | CC1(C)C[C@H](Nc2nc(NCCc3noc(C(F)(F)F)n3)ncc2C#N)CC[C@@H]1O [Cmpd 219] | 800 to 2000 nM | G (selectivity between 5- and 20-fold (selectivity level G))
12 | CC1(C)[C@@H](O)C[C@H]1Nc1nc(NCCc2ccco2)ncc1C#N [Cmpd 234] | 800 to 2000 nM | G (selectivity between 5- and 20-fold (selectivity level G))
13 | CC1(C)C[C@H](Nc2nc(NCCc3cncc(Cl)c3)ncc2C#N)CC[C@@H]1O [Cmpd 276] | 100 to 800 nM | F (selectivity of between 20- and 100-fold (selectivity level F))
14 | CC1(C)C[C@H](Nc2nc(NCCc3cc4cc(C#N)ccc4[nH]3)ncc2C#N)CC[C@@H]1O [Cmpd 251] | 100 to 800 nM | G (selectivity between 5- and 20-fold (selectivity level G))
15 | CC1(C)[C@@H](O)CCC[C@H]1Nc1nc(NCCC2C(=O)Nc3cc(F)ccc32)ncc1C#N (some centres unmarked) [Cmpd 312] | 100 to 800 nM | G (selectivity between 5- and 20-fold (selectivity level G))
16 | CC1(C)C[C@H](Nc2nc(NCCc3ccnc(C(F)(F)F)c3)ncc2C#N)CC[C@@H]1O [Cmpd 272] | 100 to 800 nM | G (selectivity between 5- and 20-fold (selectivity level G))
17 | CC1(C)[C@H](O)CCC[C@@H]1Nc1nc(NCCC2C(=O)Nc3ccc(F)cc32)ncc1C#N (some centres unmarked) [Cmpd 315] | 100 to 800 nM | G (selectivity between 5- and 20-fold (selectivity level G))
18 | CC1(C)C[C@H](Nc2nc(NCC[C@]3(C)C(=O)Nc4ccccc43)ncc2C#N)CC[C@@H]1O [Cmpd 303] | 2000 to 10000 nM | H (selectivity level of 5-fold or less (selectivity level H))
19 | C[C@]1(O)CC2(C[C@H](Nc3nc(NCCC4C(=O)Nc5ccccc54)ncc3C#N)C2)C1 (some centres unmarked) [Cmpd 301] | 100 to 800 nM | F (selectivity of between 20- and 100-fold (selectivity level F))
20 | CC(F)(F)COc1ncncc1CNc1ncc(C#N)c(N[C@H]2CCC[C@](C)(O)C2)n1 [Cmpd 285] | 2000 to 10000 nM | H (selectivity level of 5-fold or less (selectivity level H))
21 | Cc1cnccc1CCNc1ncc(C#N)c(N[C@@H]2C[C@H](O)C2(C)C)n1 [Cmpd 268] | 800 to 2000 nM | G (selectivity between 5- and 20-fold (selectivity level G))
22 | CC(F)(F)COc1ncncc1CNc1ncc(C#N)c(N[C@H]2CCC[C@@](C)(O)C2)n1 [Cmpd 287] | 100 to 800 nM | F (selectivity of between 20- and 100-fold (selectivity level F))

Row | SMILES | IC50 (His-PKC-theta) | Sel. Level (ratio of IC50 PKC-delta/IC50 PKC-theta) (PKC delta)
23 | CC1(C)C[C@H](Nc2nc(NCCn3cccn3)ncc2C#N)CC[C@@H]1O [Cmpd 211] | 2000 to 10000 nM | H (selectivity level of 5-fold or less (selectivity level H))
24 | CC1(C)C[C@H](Nc2nc(NCCc3cnc(C4CC4)nc3)ncc2C#N)CC[C@@H]1O [Cmpd 218] | 2000 to 10000 nM | H (selectivity level of 5-fold or less (selectivity level H))
25 | CC1(C)[C@@H](O)C[C@H]1Nc1nc(NCCc2cnoc2)ncc1C#N [Cmpd 246] | 2000 to 10000 nM | H (selectivity level of 5-fold or less (selectivity level H))
26 | CC1(C)C[C@H](Nc2nc(NCCc3cc4ccccc4[nH]3)ncc2C#N)CC[C@@H]1O [Cmpd 200] | 800 to 2000 nM | G (selectivity between 5- and 20-fold (selectivity level G))
27 | CC1(C)C[C@H](Nc2nc(NCCc3c[nH]c4ccncc34)ncc2C#N)CC[C@@H]1O [Cmpd 284] | 2000 to 10000 nM | H (selectivity level of 5-fold or less (selectivity level H))
28 | C[C@]1(O)CC2(C[C@H](Nc3nc(NCCC4C(=O)Nc5ccccc54)ncc3C#N)C2)C1 (some centres unmarked) [Cmpd 302] | 800 to 2000 nM | G (selectivity between 5- and 20-fold (selectivity level G))
29 | CC1(C)[C@@H](O)CCC[C@H]1Nc1nc(NCCC2C(=O)Nc3ccccc32)ncc1C#N (some centres unmarked) [Cmpd 308] | 100 to 800 nM | H (selectivity level of 5-fold or less (selectivity level H))
30 | CC1(C)[C@H](O)CCC[C@H]1Nc1nc(NCCC2C(=O)Nc3ccccc32)ncc1C#N (some centres unmarked) [Cmpd 306] | 100 to 800 nM | H (selectivity level of 5-fold or less (selectivity level H))
31 | Cc1cccc2c1NC(=O)C2CCNc1ncc(C#N)c(N[C@@H]2CC[C@H](O)C(C)(C)C2)n1 (some centres unmarked) [Cmpd 248] | < 100 nM | F (selectivity of between 20- and 100-fold (selectivity level F))
32 | CC1(C)C[C@H](Nc2nc(NCCc3cccnc3)ncc2C#N)CC[C@@H]1O [Cmpd 281] | 800 to 2000 nM | G (selectivity between 5- and 20-fold (selectivity level G))
33 | CC(F)(F)COc1ncncc1CNc1ncc(C#N)c(N[C@@H]2CCC[C@@H](O)C2(C)C)n1 [Cmpd 297] | 100 to 800 nM | F (selectivity of between 20- and 100-fold (selectivity level F))
34 | CC1(C)C[C@H](Nc2nc(NCCc3c[nH]c4cc(F)ccc34)ncc2C#N)CC[C@@H]1O [Cmpd 252] | < 100 nM | E (selectivity (Sel. Level=ratio of IC50 PKC-delta/IC50 PKC-theta) of >100-fold (selectivity level E))
35 | CC1(C)C[C@H](Nc2nc(NCCn3cncn3)ncc2C#N)CC[C@@H]1O [Cmpd 223] | 2000 to 10000 nM | H (selectivity level of 5-fold or less (selectivity level H))
36 | Cc1cnn(CCNc2ncc(C#N)c(N[C@@H]3CC[C@H](O)C(C)(C)C3)n2)c1 [Cmpd 212] | 2000 to 10000 nM | H (selectivity level of 5-fold or less (selectivity level H))
37 | CC1(C)[C@H](O)CCC[C@H]1Nc1nc(NCCC2C(=O)Nc3ccc(F)cc32)ncc1C#N (some centres unmarked) [Cmpd 314] | 100 to 800 nM | H (selectivity level of 5-fold or less (selectivity level H))
38 | Cc1cc(CCNc2ncc(C#N)c(N[C@H]3CC[C@@H](C(N)=O)CC3)n2)ncn1 [Cmpd 319] | 2000 to 10000 nM | H (selectivity level of 5-fold or less (selectivity level H))
39 | N#Cc1cnc(NCCc2c[nH]c3cnccc23)nc1N[C@H]1CC[C@@H](C(N)=O)CC1 [Cmpd 320] | 100 to 800 nM | F (selectivity of between 20- and 100-fold (selectivity level F))
40 | CC1(C)[C@@H](O)C[C@H]1Nc1nc(NCCc2ncon2)ncc1C#N [Cmpd 230] | 2000 to 10000 nM | H (selectivity level of 5-fold or less (selectivity level H))
41 | CNC(=O)[C@H]1C[C@@H](Nc2nc(NCCc3c[nH]c4ccccc34)ncc2C#N)C1 [Cmpd 289] | 800 to 2000 nM | G (selectivity between 5- and 20-fold (selectivity level G))
42 | Cc1cc2ccccc2n1CCNc1ncc(C#N)c(N[C@@H]2C[C@H](O)C2(C)C)n1 [Cmpd 243] | 800 to 2000 nM | G (selectivity between 5- and 20-fold (selectivity level G))
43 | CC1(C)C(O)C[C@H]1Nc1nc(NCCc2cccnc2)ncc1C#N (some centres unmarked) [Cmpd 231] | 800 to 2000 nM | G (selectivity between 5- and 20-fold (selectivity level G))
